Data as given in US12397010B2, “Treatment of chronic headaches” (Saint Louis University, priority 2019, dated 2025).

Test system: trigeminal neurons that innervate the dural vasculature
Assay: in vivo electrophysiological recordings from single unit dural-responsive trigeminal neurons (preclinical model of migraine)
Conditions: rat; for normal cutaneous facial noxious and innocuous somatosensory responses: same neurons, extracranial somatosensory processing; for ongoing neuronal firing of central trigeminal neurons / response to pain-producing stimulation of the dura mater of central trigeminal neurons: intravenous administration, P<0.05 vs. baseline; for ongoing neuronal firing of central trigeminal neurons: FIGS. 1A & 1E; for response to pain-producing stimulation of the dura mater of central trigeminal neurons: FIGS. 1B & 1F
Description: FIGS. 1A-1H depict a preclinical model of migraine manipulates the pain responsive sensory neurons that innervate the dura mater and its associated blood vessels. The cell bodies of these sensory neurons reside in the trigeminal ganglia. Measuring dural-responsive trigeminal neuronal responses in animals has proven to be extremely predictive of therapeutic efficacy for abortive migraine treatments, such as triptans, and it also translates to migraine preventives. Here we show in vivo electrophysiological recordings in a rat from single unit trigeminal neurons that innervate the dural vasculature. […] Intravenous administration of the migraine abortive, naratriptan (FIGS. 1A-1D) and the migraine preventive, amitriptyline (FIGS. 1E-1H), inhibited ongoing neuronal firing (FIGS. 1A & 1E) and the response to pain-producing stimulation of the dura mater (FIGS. 1B & 1F) of central trigeminal neurons. […] In the same neurons, naratriptan and MRS5980 had no effect on normal cutaneous facial noxious and innocuous somatosensory responses. Amitriptyline, however did affect this normal somatosensory processing. * P<0.05 vs. baseline.

Row | Compound | inhibiting neuronal responses (compared with naratriptan and amitriptyline) (dural-responsive trigeminal neurons) | normal cutaneous facial noxious and innocuous somatosensory responses | ongoing neuronal firing of central trigeminal neurons | response to pain-producing stimulation of the dura mater of central trigeminal neurons
1 | CNC(=O)[C@@]12C[C@@H]1[C@@H](n1cnc3c(NC)nc(C#Cc4ccc(Cl)s4)nc31)[C@H](O)[C@@H]2O [MRS5980] | equally efficacious | no effect |  | 
2 | CN(C)CCC=C1c2ccccc2CCc2ccccc21 [amitriptyline] |  | did affect | inhibited | inhibited
3 | CNS(=O)(=O)CCc1ccc2[nH]cc(C3CCN(C)CC3)c2c1 [naratriptan] |  | no effect | inhibited | inhibited
